Marks after values point to notes of the source that are not given here.
Experiments:
[1] = Subacute toxicity study, daily oral gavages for 14 days in the mouse, 28-day recovery; assay type: in vivo, CD-1 male mice; settings: for Hematology: day 5 and end of treatment
Procedure: The nature and purpose of this subacute oral toxicity study was to determine the extent to which cumulative toxicity occurred with repeated administration of sodium meta-arsenite for 14 days to mice. Moreover, the study was intended to define the most likely target organs for toxicity and to investigate the reversibility of toxicity.
Ampoules of sodium meta-arsenite (dissolved in 10% (w/v) glucose in water) in concentrations of 0, 1.6 and 3.2 mg/ml were stored in a refrigerator in the dark. Based on the previous study, the following doses were selected: 0, 16 (½ MTD) and 32 mg/kg/day (MTD). Each dose was administered daily by oral gavages to groups of 20 CD-1 male mice for 14 days, followed by a 28-day recovery period.
Ten animals of each group were killed on day 15 (main groups). The remaining animals (recovery groups) were killed on day 43 after a recovery period of 28 days. Blood samples were collected from all main group animals on day 5 to determine effects on the hematology. Blood samples were also collected at the end of the treatment period (day 15, all main group animals) and after recovery (day 43, all recovery group animals) for hematology and clinical biochemistry.
Clinical signs were evaluated daily and body weights were recorded twice weekly. Macroscopic examination was performed at termination. Organ weight measurements were performed at scheduled termination, i.e. day 15 (main groups) and day 43 (recovery groups). Microscopic examination was performed on a selection of tissues of both main and recovery animals.

[2] = test system: ALL-SCID 4; assay: Anticancer activity in human leukemia model ALL-SCID 4; settings: for BW loss % (day) / Drug-related deaths: days 34-54
Description: Anticancer activity of the sodium meta-arsenite and arsenic trioxide against two human paediatric acute lymphoblastic leukemia (ALL) models in vivo, ALL-SCID 4 was investigated to compare.
Male NOD/SCID mice (deficient in T and B lymphocytes, NK cells and functional macrophages) were transplanted s.c. on day 0 with fragments of ALL-SCID 4 cancers, which were obtained from mice used for routine passage of the cancers. Mice were randomized to the scheduled treatment groups.
Sodium meta-arsenite was administered orally at 2, 4 and 6 mg/kg/day (⅓ MTD, ⅔ MTD and MTD) once every day from day 34-54 after transplantation. The vehicle control (5% glucose in water) was administered i.p. (10 ml/kg).
Sodium meta-arsenite was dissolved in ready-to-use sterile infusion (5% (w/v) glucose in aqua injectabila). Arsenic trioxide was dissolved in 25 mM NaOH then dissolved in 5% glucose in aqua injectabila. The solutions were prepared freshly on the day of therapy for each administration.

With `O=[As][O-].[Na+]` [Sodium meta-arsenite, sodium meta-arsenite] the Clinical signs ([1]; 16 mg/kg/day oral 14 days, mouse) was “swelling of the abdomen and piloerection”, the Hematology ([1]; 16 mg/kg/day) was “lower erythrocyte count, hemoglobin and haematocrit” and the Microscopic examination ([1]; 16 mg/kg/day, end of treatment) was “atrophy of the lymphoid organs (Peyer's patches, thymus), ulceration and hyperplasia of the fore stomach epithelium, necrosis of liver and gall bladder and myeloid hyperplasia and congestion of the sternal bone marrow”. For the same molecule, the Necropsy findings ([1]; 16 mg/kg/day, end of treatment) was “crateriform retractions of the fore stomach”, the Clinical signs ([1]; 32 mg/kg/day oral 14 days, mouse) was “swelling of the abdomen and piloerection” and the “Premature mortality during the treatment phase, males” value ([1]; 32 mg/kg/day oral 14 days, groups of 20 male mice) was 7. For the same molecule, the Necropsy findings ([1]; 32 mg/kg/day, after treatment) was “crateriform retractions of the forestomach and a reduced thymus size”, the Hematology ([1]; 32 mg/kg/day) was “Lower leucocyte count, platelet count, affected erythrocyte parameters (lower erythrocyte count, hemoglobin and haematocrit) and low reticulocyte counts” and the Clinical biochemistry ([1]; 32 mg/kg/day, end of treatment) was “Decreased glucose, total protein and albumin concentrations and increased sodium, calcium and inorganic phosphorus concentrations”. The Microscopic examination ([1]; 32 mg/kg/day, end of treatment) was “atrophy of the lymphoid organs (mesenteric and mandibular lymph nodes, Peyer's patches, spleen and thymus), ulceration and hyperplasia of the fore stomach epithelium, ulceration of the caecum, necrosis of the liver and gall bladder”, the Organ weights ([1]; 32 mg/kg/day, end of treatment) was “Decreased absolute and relative spleen and thymus weight and increased relative liver weight” and the “Main target organs for toxicity” value ([1]; 16 and 32 mg/kg/day oral 14 days, mouse) was “bone marrow, lymphoid organs and the forestomach”. The “BW loss % (day)” value ([2]; 2 mg/kg p.o.) was 0 (44) %, the Drug-related deaths ([2]; 2 mg/kg p.o.) was 0/8 and the T/C % ([2]; 2 mg/kg p.o., days 34-54 (⅓ MTD)) was 38* %. The T/C % ([2]; 2 mg/kg p.o., days 34-54 (⅓ MTD), listed as sodium meta-arsenite) was 38%, the “BW loss % (day)” value ([2]; 4 mg/kg p.o.) was “+5 (44) %” and the Drug-related deaths ([2]; 4 mg/kg p.o.) was 0/8. For the same molecule, the T/C % ([2]; 4 mg/kg p.o., days 34-54 (⅔ MTD)) was 55* %, the T/C % ([2]; 4 mg/kg p.o., days 34-54 (⅔ MTD), listed as sodium meta-arsenite) was 55% and the “BW loss % (day)” value ([2]; 6 mg/kg p.o.) was “+5 (44) %”. For the same molecule, the Drug-related deaths ([2]; 6 mg/kg p.o.) was 0/8, the T/C % ([2]; 6 mg/kg p.o., days 34-54 (MTD)) was 48* % and the T/C % ([2]; 6 mg/kg p.o., days 34-54 (MTD), listed as sodium meta-arsenite) was 48%. For the same molecule, the MTD ([2]; small dose finding studies prior to the ALL-SCID 4 study) was 6 mg/kg/day and the “Body weight loss and lethality” value ([2]; treated groups 2, 4, 6 mg/kg/day p.o.) was “not observed”.
